Assay results reported in PubChem BioAssay AID328 (DTP/NCI, 2004).
Inconclusive results and toxic doses are left out.

System: BDF1 mice, P388 leukemia ip, median survival T/C
Assay: NCI In Vivo Anticancer Drug Screen. Data for tumor model P388 Leukemia (intraperitoneal) in B6D2F1 (BDF1) mice
Conditions: endpoint: median survival time, higher = longer survival
In short: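 Transplantable tumour in mice; compound vs vehicle dosing; survival scored; ratio of treated to control reported.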

[1] = dose: 200.0 mg/kg/injection, schedule: Q01DX009 (ip), vehicle: saline with Tween-80
[2] = dose: 400.0 mg/kg/injection, schedule: Q01DX009 (ip), vehicle: saline with Tween-80
[3] = dose: 100.0 mg/kg/injection, schedule: Q01DX009 (ip), vehicle: saline with Tween-80
[4] = dose: 100.0 mg/kg/injection, schedule: Q04DX003 (ip), vehicle: saline with Tween-80
[5] = dose: 200.0 mg/kg/injection, schedule: Q04DX003 (ip), vehicle: saline with Tween-80
[6] = dose: 400.0 mg/kg/injection, schedule: Q04DX003 (ip), vehicle: saline with Tween-80
[7] = dose: 50.0 mg/kg/injection, schedule: Q04DX003 (ip), vehicle: saline

COc1ccc(C2(C#N)CCCCC2)cc1 was tested, and the T/C (dose: 100.0 mg/kg/injection, schedule: Q01DX009 (ip), vehicle: Klucel (hydroxypropylcellulose) (HPC)) was 104 % of control, the T/C (dose: 100.0 mg/kg/injection, schedule: Q04DX003 (ip), vehicle: Klucel (hydroxypropylcellulose) (HPC)) was 95 % of control and the T/C (dose: 200.0 mg/kg/injection, schedule: Q01DX009 (ip), vehicle: Klucel (hydroxypropylcellulose) (HPC)) was 91 % of control. The T/C (dose: 200.0 mg/kg/injection, schedule: Q04DX003 (ip), vehicle: Klucel (hydroxypropylcellulose) (HPC)) was 108 % of control, the T/C (dose: 400.0 mg/kg/injection, schedule: Q01DX009 (ip), vehicle: Klucel (hydroxypropylcellulose) (HPC)) was 108 % of control and the T/C (dose: 400.0 mg/kg/injection, schedule: Q04DX003 (ip), vehicle: Klucel (hydroxypropylcellulose) (HPC)) was 91 % of control.

With CCOc1ccc(/C=N/NS(=O)(=O)c2ccccc2)cc1OC the T/C [1] was 105 % of control and the T/C [2] was 100 % of control.

For Cc1cc(=O)c(O)c(N(C)C)o1, the T/C (dose: 50.0 mg/kg/injection, schedule: Q01DX009 (ip), vehicle: saline with Tween-80) was 95 % of control, the T/C [3] was 106 % of control and the T/C [1] was 102 % of control.

For Cc1cc(N(CCCl)CCCl)ccc1N=Nc1ccccc1C(=O)O, the T/C (dose: 5.0 mg/kg/injection, schedule: Q01DX010 (ip), vehicle: saline) was 150 % of control, the T/C (dose: 10.0 mg/kg/injection, schedule: Q01DX010 (ip), vehicle: saline) was 175 % of control and the T/C (dose: 20.0 mg/kg/injection, schedule: Q01DX010 (ip), vehicle: saline) was 210 % of control. For the same molecule, the T/C (dose: 40.0 mg/kg/injection, schedule: Q01DX010 (ip), vehicle: saline) was 95 % of control.

In the case of C1=CC(c2ccccc2)N2C(C(c3ccccc3)=N1)C2c1ccccc1 (stereo not drawn), the T/C (dose: 25.0 mg/kg/injection, schedule: Q04DX003 (ip), vehicle: saline with Tween-80) is reported as 98 % of control, the T/C (dose: 50.0 mg/kg/injection, schedule: Q04DX003 (ip), vehicle: saline with Tween-80) is reported as 94 % of control and the T/C [4] is reported as 100 % of control. For the same molecule, the T/C [5] was 103 % of control.

With CC(=O)OC1CCC2(C)C3CCC4(C)C(=CCC5(C(=O)O)CCC(C)(C)CC45)C3(C)CCC2C1(C)C (stereo not drawn) the T/C (dose: 0.12 mg/kg/injection, schedule: Q01DX009 (ip), vehicle: alcohol) was 111 % of control, the T/C (dose: 0.25 mg/kg/injection, schedule: Q01DX009 (ip), vehicle: alcohol) was 106 % of control and the T/C (dose: 0.5 mg/kg/injection, schedule: Q01DX009 (ip), vehicle: alcohol) was 116 % of control.

CCc1ccc(NC(=O)c2ccccc2Cl)cc1 was tested, and the T/C [4] was 100 % of control, the T/C [5] was 91 % of control and the T/C [6] was 91 % of control.

For Cc1ccc(C(C#N)Nc2ccccc2)cc1 (stereo not drawn), the T/C [3] was 100 % of control, the T/C [4] was 100 % of control and the T/C [1] was 115 % of control. The T/C [5] was 100 % of control, the T/C [2] was 100 % of control and the T/C [6] was 104 % of control.

In the case of O=C(O)CCN1C(=O)c2ccccc2C1=O, the T/C [3] is reported as 90 % of control and the T/C [1] is reported as 100 % of control.

For CC(C)(C)C([NH-])=O.CC(C)(C)C([NH-])=O.[Cl][Pt+2][Cl], the T/C (dose: 3.12 mg/kg/injection, schedule: Q01DX009 (ip), vehicle: saline) was 88 % of control, the T/C (dose: 6.25 mg/kg/injection, schedule: Q01DX009 (ip), vehicle: saline) was 92 % of control and the T/C (dose: 12.5 mg/kg/injection, schedule: Q01DX009 (ip), vehicle: saline) was 108 % of control. For the same molecule, the T/C (dose: 12.5 mg/kg/injection, schedule: Q04DX003 (ip), vehicle: saline) was 105 % of control, the T/C (dose: 25.0 mg/kg/injection, schedule: Q01DX009 (ip), vehicle: saline) was 92 % of control and the T/C (dose: 25.0 mg/kg/injection, schedule: Q04DX003 (ip), vehicle: saline) was 107 % of control. The T/C (dose: 50.0 mg/kg/injection, schedule: Q01DX009 (ip), vehicle: saline) was 94 % of control and the T/C [7] was 98 % of control.

With Nc1ccn(C2OC(COP(=O)(O)O)C(O)C2O)c(=O)n1 (stereo not drawn) the T/C (dose: 4.2 mg/kg/injection, schedule: Q04DX003 (ip), vehicle: saline with Tween-80) was 113 % of control, the T/C (dose: 6.3 mg/kg/injection, schedule: Q04DX003 (ip), vehicle: saline with Tween-80) was 113 % of control and the T/C (dose: 9.6 mg/kg/injection, schedule: Q04DX003 (ip), vehicle: saline) was 150 % of control. For the same molecule, the T/C [7] was 159 % of control, the T/C (dose: 75.0 mg/kg/injection, schedule: Q04DX003 (ip), vehicle: saline) was 172 % of control and the T/C [3] was 187 % of control. For the same molecule, the T/C (dose: 115.0 mg/kg/injection, schedule: Q04DX003 (ip), vehicle: saline with Tween-80) was 172 % of control, the T/C (dose: 175.0 mg/kg/injection, schedule: Q04DX003 (ip), vehicle: saline with Tween-80) was 168 % of control and the T/C [1] was 112 % of control. The T/C (dose: 264.0 mg/kg/injection, schedule: Q04DX003 (ip), vehicle: saline with Tween-80) was 181 % of control, the T/C [6] was 154 % of control and the T/C (dose: 600.0 mg/kg/injection, schedule: Q04DX003 (ip), vehicle: saline with Tween-80) was 177 % of control.
